Data taken from ChEMBL document CHEMBL1125132, “Synthesis and inhibitory potency of peptides corresponding to the subunit 2 C-terminal region of herpes virus ribonucleotide reductases” (J Med Chem, 1990).
Numbered stars: 1 amine (or outer) side, 2 acyl side, 3 side chain; on linkers, the order of the positions; unused ones are H or OH. Square brackets hold non-standard residues; d marks the D form. Peptide text beside a SMILES is read from it. * marks the point of attachment. ξ: configuration not given here. X1 = CC(C)[C@@H](C(=O)[*:2])N(CCCCCCCCO[*:3])[*:1]; Desaminotyrosyl = O=C(CCc1ccc(O)cc1)*; Thr(3ξ) = CC(O)[C@H](N)C(=O)O

What was measured:
[1] = target: T1, Ribonucleoside-diphosphate reductase large subunit (Herpes simplex virus (type 1 / strain 17), UniProt P08543); assay: Inhibitory activity against HSV-1 Ribonucleoside diphosphate reductase was determined; set-up: species or system Human alphaherpesvirus 1
T1 sequence (P08543 whole entry): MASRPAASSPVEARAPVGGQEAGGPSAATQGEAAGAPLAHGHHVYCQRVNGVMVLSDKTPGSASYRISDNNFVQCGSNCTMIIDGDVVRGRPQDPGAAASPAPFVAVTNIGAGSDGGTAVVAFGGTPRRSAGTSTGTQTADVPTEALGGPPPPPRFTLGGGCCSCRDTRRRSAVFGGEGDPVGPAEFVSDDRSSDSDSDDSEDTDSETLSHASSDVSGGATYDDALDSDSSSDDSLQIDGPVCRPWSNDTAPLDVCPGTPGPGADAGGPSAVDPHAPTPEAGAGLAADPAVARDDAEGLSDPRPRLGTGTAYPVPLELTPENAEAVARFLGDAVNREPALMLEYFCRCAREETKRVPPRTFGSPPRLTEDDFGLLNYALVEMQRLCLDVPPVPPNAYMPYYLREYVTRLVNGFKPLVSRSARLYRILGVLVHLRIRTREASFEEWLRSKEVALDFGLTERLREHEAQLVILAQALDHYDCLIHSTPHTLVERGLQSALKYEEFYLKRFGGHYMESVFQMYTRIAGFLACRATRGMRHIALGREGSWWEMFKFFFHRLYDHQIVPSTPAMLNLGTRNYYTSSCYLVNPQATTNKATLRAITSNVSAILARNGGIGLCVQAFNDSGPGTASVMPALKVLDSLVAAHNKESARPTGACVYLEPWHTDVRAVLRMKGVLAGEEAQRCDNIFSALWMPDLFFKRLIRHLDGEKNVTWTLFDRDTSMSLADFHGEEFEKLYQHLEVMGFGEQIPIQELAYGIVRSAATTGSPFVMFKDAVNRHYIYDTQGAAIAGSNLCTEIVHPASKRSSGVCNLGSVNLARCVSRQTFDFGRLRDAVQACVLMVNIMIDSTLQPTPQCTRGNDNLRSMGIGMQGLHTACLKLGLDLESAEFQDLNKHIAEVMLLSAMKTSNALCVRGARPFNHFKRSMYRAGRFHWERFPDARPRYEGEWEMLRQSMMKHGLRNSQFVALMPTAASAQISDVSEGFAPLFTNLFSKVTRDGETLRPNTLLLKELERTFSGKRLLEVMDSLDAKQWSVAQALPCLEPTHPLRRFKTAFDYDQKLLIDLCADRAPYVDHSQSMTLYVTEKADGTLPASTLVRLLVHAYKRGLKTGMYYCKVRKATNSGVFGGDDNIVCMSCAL

[2] = target: T1, Ribonucleoside-diphosphate reductase large subunit; assay: Inhibitory activity was determined against HSV-1 Ribonucleoside diphosphate reductase; set-up: species or system Human alphaherpesvirus 1
[3] = Relative inhibition compared to HSV-R2-(329-337) was determined; Inactive at 2 mM
[4] = Relative inhibition compared to HSV-R2-(329-337) was determined; Inactive at 1 mM

| Molecule | IC50 [1] [µM] | IC50 [2] [µM] | Relative inhibition [3] [%] | Relative inhibition [4] [%] |
| --- | --- | --- | --- | --- |
| COc1ccc(C[C@H](NC(C)=O)C(=O)N[C@@H](C)C(=O)NCC(=O)N[C@@H](C)C(=O)N[C@H](C(=O)N[C@H](C(=O)N[C@@H](CC(N)=O)C(=O)N[C@@H](CC(=O)O)C(=O)N[C@@H](CC(C)C)C(=O)O)C(C)C)C(C)C)cc1 | 60 | – | – | – |
| COc1ccc(C[C@H](N)C(=O)N[C@@H](C)C(=O)NCC(=O)N[C@@H](C)C(=O)N[C@H](C(=O)N[C@H](C(=O)N[C@@H](CC(N)=O)C(=O)N[C@@H](CC(=O)O)C(=O)N[C@@H](CC(C)C)C(=O)O)C(C)C)C(C)C)cc1 | 60 | – | – | – |
| CC(C)C[C@H](NC(=O)[C@H](CC(=O)O)NC(=O)[C@H](CC(N)=O)NC(=O)[C@@H](NC(=O)[C@@H](NC(=O)[C@H](C)NC(=O)CNC(=O)[C@H](C)NC(=O)[C@@H](N)Cc1ccc(O)cc1)C(C)C)C(C)C)C(N)=O | 60 | – | – | – |
| CSCC[C@H](NC(=O)[C@@H](NC(=O)[C@@H](N)Cc1ccc(O)cc1)[C@@H](C)O)C(=O)N[C@@H](CC(C)C)C(=O)N[C@H](C(=O)N[C@H](C(=O)N[C@@H](CC(=O)O)C(=O)N[C@@H](CC(=O)O)C(=O)N[C@@H](CC(C)C)C(=O)O)C(C)C)C(C)C | 36 | 110 | – | – |
| CC(C)C[C@H](NC(=O)[C@H](CC(=O)O)NC(=O)[C@H](CC(N)=O)NC(=O)[C@@H](NC(=O)[C@@H](NC(=O)[C@H](C)NC(=O)CNC(=O)[C@H](C)NC(=O)[C@H](Cc1ccc(O)cc1)NC(=O)[C@H](CO)NC(=O)[C@@H](NC(=O)[C@H](CO)NC(=O)[C@H](CCCN=C(N)N)NC(=O)[C@H](CS)NC(=O)[C@H](CCC(=O)O)NC(=O)[C@H](Cc1ccccc1)NC(=O)[C@H](Cc1ccccc1)NC(=O)[C@H](CC(=O)O)NC(=O)[C@@H](N)[C@@H](C)O)[C@@H](C)O)C(C)C)C(C)C)C(=O)O | 55 | 15 | – | – |
| CC(=O)N[C@H](C(=O)N[C@H](C(=O)N[C@@H](CC(N)=O)C(=O)N[C@@H](CC(=O)O)C(=O)N[C@@H](CC(C)C)C(=O)O)C(C)C)C(C)C | 60 | 400 | – | – |
| CC(=O)N[C@H](Cc1ccc(O)cc1)C(=O)N[C@@H](C)C(=O)NCC(=O)N[C@@H](C)C(=O)N[C@H](C(=O)N[C@H](C(=O)N[C@@H](CC(N)=O)C(=O)N[C@@H](CC(=O)O)C(=O)N[C@@H](CC(C)C)C(=O)O)C(C)C)C(C)C | 60 | – | – | – |
| CC(C)C[C@H](NC(=O)[C@H](CC(=O)O)NC(=O)[C@H](CC(N)=O)NC(=O)[C@@H](NC(=O)[C@@H](NC(=O)[C@H](C)NC(=O)CNC(=O)[C@H](C)NC(=O)[C@H](Cc1ccc(O)cc1)NC(=O)CCCCCCCN)C(C)C)C(C)C)C(=O)O | 44 | 12 | – | – |
| CC(=O)N[C@@H](Cc1ccc(O)cc1)C(=O)N[C@H](C)C(=O)NCC(=O)N[C@@H](C)C(=O)N[C@H](C(=O)N[C@H](C(=O)N[C@@H](CC(N)=O)C(=O)N[C@@H](CC(=O)O)C(=O)N[C@@H](CC(C)C)C(=O)O)C(C)C)C(C)C | 60 | – | – | – |
| CC(=O)N[C@@H](Cc1ccc(O)cc1)C(=O)N[C@@H](C)C(=O)NCC(=O)N[C@@H](C)C(=O)N[C@H](C(=O)N[C@H](C(=O)N[C@@H](CC(N)=O)C(=O)N[C@@H](CC(=O)O)C(=O)N[C@@H](CC(C)C)C(N)=O)C(C)C)C(C)C | 60 | – | – | – |
| CC(=O)N[C@@H](Cc1ccc(O)cc1)C(=O)N[C@@H](C)C(=O)NCC(=O)N[C@@H](C)C(=O)N[C@H](C(=O)N[C@H](C(=O)N[C@@H](CC(N)=O)C(=O)N[C@@H](CC(=O)O)C(=O)N[C@@H](CC(C)C)C(=O)O)C(C)C)C(C)C | 60 | – | – | – |
| CC(C)C[C@H](NC(=O)[C@H](CC(=O)O)NC(=O)[C@H](CC(N)=O)NC(=O)[C@@H](NC(=O)[C@@H](NC(=O)[C@H](C)NC(=O)CNC(=O)[C@H](C)NC(=O)CCc1ccc(O)cc1)C(C)C)C(C)C)C(=O)O (Desaminotyrosyl-AGAVVNDL-OH) | 60 | 33 | – | – |
| CC[C@H](C)[C@H](NC(=O)[C@@H](NC(=O)CNC(=O)[C@H](C)NC(=O)CCc1ccc(O)cc1)C(C)O)C(=O)N[C@@H](CC(N)=O)C(=O)N[C@@H](CC(=O)O)C(=O)N[C@@H](CC(C)C)C(=O)O (some centres not stated) (Desaminotyrosyl-AG[Thr(3ξ)]INDL-OH) | 13 | 13 | – | – |
| CC(C)C[C@H](NC(=O)[C@H](CC(=O)O)NC(=O)[C@@H](N)CC(N)=O)C(=O)O (H-Asn-Asp-Leu-OH) | – | – | 0 | – |
| CC(C)C[C@H](NC(=O)[C@H](CC(=O)O)NC(=O)[C@H](CC(N)=O)NC(=O)[C@@H](N)C(C)C)C(=O)O (H-VNDL-OH) | – | – | 0 | – |
| CC(C)C[C@H](NC(=O)[C@H](CC(=O)O)NC(=O)[C@H](CC(N)=O)NC(=O)[C@@H](NC(=O)[C@@H](NCCCCCCCCOC(=O)[C@@H](N)Cc1ccc(O)cc1)C(C)C)C(C)C)C(=O)O (H-[X1](Tyr)VNDL-OH) | 63 | 63 | – | – |
| Ac-YAGVVNDL-OH | 60 | – | – | – |
| Ac-YGAVVNDL-OH | 60 | – | – | – |
| H-AAGAVVNDL-OH | 280 | 280 | – | – |
| H-AGAVVNDL-OH | 36 | 283 | – | – |
| H-AVVNDL-OH | 190 | 190 | – | – |
| H-ECRSTSYAGAVVNDL-OH | 60 | 42 | – | – |
| H-FAGAVVNDL-OH | 55 | 90 | – | – |
| H-GAVVNDL-OH | 225 | 225 | – | – |

| Molecule | IC50 [1] [µM] | IC50 [2] [µM] | Relative inhibition [3] [%] | Relative inhibition [4] [%] |
| --- | --- | --- | --- | --- |
| H-HAGAVVNDL-OH | 55 | 323 | – | – |
| H-KYAGAVVNDL-OH | 55 | – | – | – |
| H-LAGAVVNDL-OH | 211 | 211 | – | – |
| H-STSYAGAVVNDL-OH | 60 | 29 | – | – |
| H-YAGAAVNDL-OH | – | – | 0 | – |
| H-YAGAVANDL-OH | 60 | 760 | – | – |
| H-YAGAVINDL-OH | 49 | 33 | – | – |
| H-YAGAVV-OH | – | – | 0 | – |
| H-YAGAVVADL-OH | – | – | – | 0 |
| H-YAGAVVN-OH | – | – | 0 | – |
| H-YAGAVVNAL-OH | – | – | – | 0 |
| H-YAGAVVND-OH | – | – | 0 | – |
| H-YAGAVVNDA-OH | – | – | – | 0 |
| H-YAGAVVNDF-OH | – | – | – | 0 |
| H-YAGAVVNDI-OH | 55 | 153 | – | – |
| H-YAGAVVNDLK-OH | 55 | 458 | – | – |
| H-YAGAVVNDV-OH | 55 | 846 | – | – |
| H-YAGAVVNDY-OH | – | – | – | 0 |
| H-YAGPVVNDL-OH | 44 | – | – | – |
| H-YAGTVINDL-OH | 60 | – | – | – |
| H-YAGTVVNDL-OH | 44 | 29 | – | – |
| H-YAPAVVNDL-OH | 44 | 37 | – | – |
| H-YAVVNDL-OH | 60 | – | – | – |
| H-YGAVVNDL-OH | 60 | 330 | – | – |
